Results on 4 compounds are retold here after ChEMBL document CHEMBL1201861, “Genomics of Drug Sensitity in Cancer screening data, Wellcome Trust Sanger Institute”.

One may read the IC50 as the concentration at which inhibition is half-maximal. Read a low IC50 as inhibition by little substance.

Holding throughout (experiment): cells
One assay relates to COLO-829. The class given is functional, cell-based, Homo sapiens. The settings on record: Homo sapiens, COLO-829.
A further assay has as its system D-263MG. The class given is functional, cell-based, Homo sapiens. The settings on record: Homo sapiens, D-263MG.
Another assay relates to D-392MG. The class given is functional, cell-based, Homo sapiens. Conditions: Homo sapiens, D-392MG.
Another assay relates to DSH1. The class given is functional, cell-based, Homo sapiens. The settings on record: Homo sapiens, DSH1.
In another assay the test system is DU-4475. It counts as functional, cell-based. Conditions: Homo sapiens.
Another assay relates to ES1. The class given is functional, cell-based, Homo sapiens. Conditions: Homo sapiens, ES1.
In another assay the test system is EW-16. It counts as functional, cell-based, Homo sapiens. Conditions: Homo sapiens, EW-16.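 Note: growth inhibition of human EW-16 cells, read out as cell viability.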
A further assay has as its system HEL. The class given is functional, cell-based, Homo sapiens. Conditions: Homo sapiens, HEL.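 Note: growth inhibition of HEL cells, read out with a cell viability assay.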
The next assay deals with HL-60. The class given is functional, cell-based. Conditions: Homo sapiens.
The subject of another assay is HT-144. The class given is functional, cell-based, Homo sapiens. Conditions: Homo sapiens, HT-144.
The next assay relates to IST-MEL1. The class given is functional, cell-based, Homo sapiens. The settings on record: Homo sapiens, IST-MEL1.
For another assay, the system named is J-RT3-T3-5. It counts as functional, cell-based. Conditions: Homo sapiens.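 Note: cell viability assay measuring growth inhibition of human J-RT3-T3-5 cells.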
The subject of another assay is JVM-2. It counts as functional, cell-based. The settings on record: Homo sapiens.
The subject of the next assay is LAN-6. The class given is functional, cell-based, Homo sapiens. Conditions: Homo sapiens, LAN-6.
In the next assay the test system is NCI-H1092. The class given is functional, cell-based. The settings on record: Homo sapiens.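 Note: cell growth inhibition measured with a cell viability assay.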
The next assay has as its system NCI-H1650. The class given is functional, cell-based, Homo sapiens. Conditions: Homo sapiens, NCI-H1650.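 Note: growth inhibition of human NCI-H1650 cells measured by a cell viability assay.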
The next assay deals with SNU1. It counts as functional, cell-based. Conditions: Homo sapiens.
The next assay deals with ONS-76. The class given is functional, cell-based, Homo sapiens. Conditions: Homo sapiens, ONS-76.
The next assay has as its system RH-1. It counts as functional, cell-based, Homo sapiens. The settings on record: Homo sapiens, RH-1.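 Note: growth inhibition of human RH-1 cells, read out with a cell viability assay.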
The next assay deals with RPMI-8866. It counts as functional, cell-based. The settings on record: Homo sapiens.
A further assay relates to SNB-75. The class given is functional, cell-based, Homo sapiens. The settings on record: Homo sapiens, SNB-75.
In the next assay the test system is BB65-RCC. The class given is functional, cell-based, Homo sapiens. Conditions: Homo sapiens, BB65-RCC.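 Note: growth inhibition of the cell line, measured with a cell viability assay.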
A further assay has as its system UACC-257. The class given is functional, cell-based, Homo sapiens. Conditions: Homo sapiens, UACC-257.
A further assay relates to CAS-1. It counts as functional, cell-based, Homo sapiens. Conditions: Homo sapiens, CAS-1.

The structures appear in SMILES notation. Some results are limits rather than exact numbers.

Description for BB65-RCC: SANGER: Inhibition of human BB65-RCC cell growth in a cell viability assay.
Description for COLO-829: SANGER: Inhibition of human COLO-829 cell growth in a cell viability assay.
Description for D-263MG: SANGER: Inhibition of human D-263MG cell growth in a cell viability assay.
Description for DSH1: SANGER: Inhibition of human DSH1 cell growth in a cell viability assay.
Description for DU-4475: SANGER: Inhibition of human DU-4475 cell growth in a cell viability assay.
Description for ES1: SANGER: Inhibition of human ES1 cell growth in a cell viability assay.
Description for EW-16: SANGER: Inhibition of human EW-16 cell growth in a cell viability assay.
Description for HEL: SANGER: Inhibition of human HEL cell growth in a cell viability assay.
Description for HL-60: SANGER: Inhibition of human HL-60 cell growth in a cell viability assay.
Description for HT-144: SANGER: Inhibition of human HT-144 cell growth in a cell viability assay.
Description for IST-MEL1: SANGER: Inhibition of human IST-MEL1 cell growth in a cell viability assay.
Description for J-RT3-T3-5: SANGER: Inhibition of human J-RT3-T3-5 cell growth in a cell viability assay.
Description for JVM-2: SANGER: Inhibition of human JVM-2 cell growth in a cell viability assay.
Description for LAN-6: SANGER: Inhibition of human LAN-6 cell growth in a cell viability assay.
Description for NCI-H1092: SANGER: Inhibition of human NCI-H1092 cell growth in a cell viability assay.
Description for NCI-H1650: SANGER: Inhibition of human NCI-H1650 cell growth in a cell viability assay.
Description for RPMI-8866: SANGER: Inhibition of human RPMI-8866 cell growth in a cell viability assay.
Description for SNB-75: SANGER: Inhibition of human SNB75 cell growth in a cell viability assay.
Description for SNU1: SANGER: Inhibition of human NCI-SNU-1 cell growth in a cell viability assay.
Description for UACC-257: SANGER: Inhibition of human UACC-257 cell growth in a cell viability assay.

On to `CC1=C2C[C@H]3[C@@H](CC=C4C[C@@H](O)CC[C@@]43C)[C@@H]2CC[C@]12O[C@@H]1C[C@H](C)CN[C@H]1[C@H]2C` [CYCLOPAMINE], for which the IC50 with COLO-829, in the assay with D-263MG, in the assay with D-392MG, with DSH1, in the assay with DU-4475 and in the assay on ES1 was above 16 µM throughout. Further, the IC50 with EW-16, with HEL, in the assay with HL-60, in the assay on HT-144, in the assay with IST-MEL1 and in the assay with J-RT3-T3-5 was above 16 µM throughout. Besides, the IC50 in the assay with JVM-2, in the assay with LAN-6, with NCI-H1092, in the assay on NCI-H1650, in the assay with SNU1 and with ONS-76 was above 16 µM throughout. The IC50 in the assay on RH-1, with RPMI-8866, with SNB-75, in the assay with BB65-RCC, in the assay with UACC-257 and in the assay on CAS-1 was above 16 µM throughout.

On to `CS(=O)(=O)CCNCc1ccc(-c2ccc3ncnc(Nc4ccc(OCc5cccc(F)c5)c(Cl)c4)c3c2)o1` [LAPATINIB], for which the IC50 was above 2 µM in the assay on COLO-829; above 2 µM in the assay with D-263MG; above 2 µM in the assay on D-392MG; 0.094 µM in the assay with DSH1; above 2 µM in the assay with DU-4475; above 2 µM in the assay with ES1. Moreover, the IC50 with EW-16, in the assay on HEL, in the assay on HL-60, in the assay on HT-144, with IST-MEL1 and in the assay with J-RT3-T3-5 was above 2 µM in each case. In addition, the IC50 with JVM-2, with LAN-6, in the assay with NCI-H1092, in the assay on NCI-H1650, in the assay on SNU1 and in the assay with ONS-76 was above 2 µM each time. Besides, the IC50 in the assay on RH-1, in the assay on RPMI-8866, in the assay with SNB-75, in the assay on BB65-RCC, in the assay with UACC-257 and in the assay with CAS-1 was above 2 µM each time.

As for `CCc1nc(N)nc(N)c1-c1ccc(Cl)cc1` [PYRIMETHAMINE], the IC50 in the assay with COLO-829 is 7.28 µM; with D-263MG, above 20 µM; with D-392MG it was above 20 µM; in the assay with DSH1 it was 4.98 µM; in the assay on DU-4475, above 20 µM; in the assay on ES1 it was 0.123 µM. Also, the concentration for half-maximal inhibition (IC50) in the assay with EW-16 is 15.8 µM; with HEL, 2.67 µM; in the assay with HL-60, above 20 µM; in the assay on HT-144, 6.8 µM; in the assay with IST-MEL1 it was 4.33 µM; in the assay with J-RT3-T3-5, 2.22 µM. Besides, the IC50 was above 20 µM in the assay on JVM-2; above 20 µM in the assay on LAN-6; above 20 µM in the assay on NCI-H1092; above 20 µM with NCI-H1650; 14.7 µM with SNU1; 9.86 µM with ONS-76. In addition, the IC50 in the assay with RH-1 is above 20 µM; in the assay on RPMI-8866 it was 9.7 µM; in the assay with SNB-75, above 20 µM; in the assay with BB65-RCC it was above 20 µM; in the assay on UACC-257, 3.84 µM; in the assay with CAS-1 it was above 20 µM.

In the case of `CNC(=O)c1cc(Oc2ccc(NC(=O)Nc3ccc(Cl)c(C(F)(F)F)c3)cc2)ccn1` [SORAFENIB], the IC50 with COLO-829, in the assay on D-263MG, in the assay with D-392MG, in the assay on DSH1, with DU-4475 and in the assay with ES1 was above 4 µM in each case. For the same compound, the IC50 with EW-16 was above 4 µM; with HEL, above 4 µM; with HL-60 it was 3.06 µM; with HT-144, above 4 µM; in the assay on IST-MEL1 it was above 4 µM; in the assay on J-RT3-T3-5 it was above 4 µM. Also, the IC50 in the assay on JVM-2 is above 4 µM; with LAN-6, above 4 µM; in the assay with NCI-H1092 it was above 4 µM; in the assay on SNU1, 2.32 µM; with ONS-76, above 4 µM; in the assay with RH-1, above 4 µM. Besides, the IC50 in the assay on RPMI-8866 was above 4 µM; in the assay on SNB-75 it was above 4 µM; in the assay on BB65-RCC, 0.471 µM; with UACC-257, above 4 µM; in the assay with CAS-1 it was above 4 µM.
